Measured values as given in BindingDB's records for doi:10.1021/jm070130j (Johnson & Johnson Pharmaceutical, 2007).
pEC50: −log10 of the molar value.

Biological target: Free fatty acid receptor 1 (Homo sapiens, UniProt O14842)
Test: GPR40 FDSS Assay
Settings: 37 °C
Method: Human embryonic kidney (HEK293) cells expressing human GPR40 receptors were grown in Dulbecco modified Eagles medium (DMEM)/F12 media supplemented with 10% fetal FBS and glutamine. Changes in ligand-induced calcium-dependent intracellular fluorescence were measured with a fluorometric plate reader (FDSS; Hamamatsu Corp., Bridgewater, NJ).

Free fatty acid receptor 1, sequence (O14842 whole entry): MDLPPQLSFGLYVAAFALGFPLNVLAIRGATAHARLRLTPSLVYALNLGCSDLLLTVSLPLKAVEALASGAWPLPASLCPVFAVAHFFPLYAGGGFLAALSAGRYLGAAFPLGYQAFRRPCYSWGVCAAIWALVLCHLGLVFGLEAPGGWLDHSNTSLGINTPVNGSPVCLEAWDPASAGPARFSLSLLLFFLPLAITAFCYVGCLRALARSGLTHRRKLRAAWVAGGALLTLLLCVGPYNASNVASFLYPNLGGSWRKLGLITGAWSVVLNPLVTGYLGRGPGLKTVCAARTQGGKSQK

SMILES	pEC50
CCCCOc1ccc(C(CC(=O)O)c2ccc(C(F)(F)F)cc2)cc1 (stereo not given) [3-(4-butoxyphenyl)-3-[4-(trifluoromethyl)phenyl]propanoic acid]	< 5.00
CCCCCOc1ccc(C(CC(=O)O)c2ccccc2)cc1 (stereo not given) [3-[4-(pentyloxy)phenyl]-3-phenylpropanoic acid]	5.53
CCCCOc1ccc(C(CC(=O)O)c2cccs2)cc1 (stereo not given) [3-(4-butoxyphenyl)-3-(thiophen-2-yl)propanoic acid]	5.89
CCCOc1ccc(C(CC(=O)O)c2ccccc2)cc1 (stereo not given) [3-phenyl-3-(4-propoxyphenyl)propanoic acid]	5.32
CC(C)CCOc1ccc(C(CC(=O)O)c2ccccc2)cc1 (stereo not given) [3-[4-(3-methylbutoxy)phenyl]-3-phenylpropanoic acid]	5.73
CCCCCOc1cccc(C(CC(=O)O)c2ccccc2)c1 (stereo not given) [3-[3-(pentyloxy)phenyl]-3-phenylpropanoic acid]	< 5.00
CCCCOc1ccc(C(CC(=O)O)c2ccccc2)cc1 (stereo not given) [3-(4-butoxyphenyl)-3-phenylpropanoic acid]	5.92
CCC(C)COc1ccc(C(CC(=O)O)c2ccccc2)cc1 (stereo not given) [3-[4-(2-methylbutoxy)phenyl]-3-phenylpropanoic acid]	6.52
CCCCOc1ccc(C(CCCC(=O)O)c2ccccc2)cc1 (stereo not given) [5-(4-butoxyphenyl)-5-phenylpentanoic acid]	< 5.00
C/C=C/COc1ccc(C(CC(=O)O)c2ccccc2)cc1 (stereo not given) [3-{4-[(2E)-but-2-en-1-yloxy]phenyl}-3-phenylpropanoic acid]	5.57
